{"source": "patent US20190307732A1", "about": "“METHODS OF TREATING MITOCHONDRIAL AND METABOLIC DISORDERS” (Abraxis Bioscience, LLC, priority 2016, published 2019)", "test_system": "S6 phosphorylation", "experiment": "Inhibition of S6 phosphorylation (pS6) in IMR90 fibroblast lysates", "assay_type": "cell-based", "conditions": "Homo sapiens, IMR-90; IMR90 fibroblasts; dose of 1 ng/mL; FIG. 2", "procedure": "IMR90 fibroblasts were administered varying doses of nab-sirolimus or rapamycin. Cell lysates were used to determine inhibition of S6 phosphorylation. Presence of vimentin. S6, and phosphorylated S6 (pS6) was measured."}
{"smiles": "CO[C@H]1C[C@@H]2CC[C@@H](C)[C@@](O)(O2)C(=O)C(=O)N2CCCC[C@H]2C(=O)O[C@H]([C@H](C)C[C@@H]2CC[C@@H](O)[C@H](OC)C2)CC(=O)[C@H](C)/C=C(\\C)[C@@H](O)[C@@H](OC)C(=O)[C@H](C)C[C@H](C)/C=C/C=C/C=C/1C", "note": "[rapamycin]", "values": [{"measurement": "inhibition at 0.001 µg/mL", "result": 100, "unit": "%"}]}
